# What was measured:
# Format in all cases: cell-based
# [1] = test system: Staphylococcus aureus (MRSA, ATCC 33591); test: Antibacterial test (MIC), comparison bacteria; conditions: Gram positive; for MIC: read-out: minimum inhibitory concentration (MIC)
# Procedure: (§1) ATCC43504 which was a standard bacterial strain was used as Helicobacter pylori (H. pylori) to perform the test in vitro in a Columbia agar medium. The bacteria were cultured at 37° C. and a pH of 7.0 for three days. The minimum inhibitory concentration (MIC, μg/ml) was found on the fourth day. Each sample was dissolved in 1% DMSO to use. […] As bacteria for comparison, Gram negative bacteria, for example, E. coli (ATCC 10536 ATCC 25922), Klebsiella pneumonia (ATCC 10031), Proteus vulgaris (ATCC 13315), Pseudomonas aeruginosa (ATCC 9027) and Salmonella typhimurium (ATCC 13311) were used and Gram positive bacteria, for example, Staphylococcus aureus, MRSA (ATCC 33591), Staphylococcus epidermidis (ATCC 12228), Streptococcus pneumonia (ATCC 6301), Mycobacterium ranae (ATCC 110) and Enterococcus faecalis (VRE, ATCC 51575) were used.
# (§2) The values in each table show minimum inhibitory concentrations (MIC, μg/ml).
# [2] = test system: Salmonella typhimurium (ATCC 13311); test: Antibacterial test (MIC), comparison bacteria; conditions: Gram negative; for MIC: Salmonella enterica, read-out: minimum inhibitory concentration (MIC)
# Procedure: as §1, §2
# [3] = test system: Escherichia coli (ATCC 10536); test: Antibacterial test (MIC), comparison bacteria; conditions: for MIC: ATCC10536, Gram negative, read-out: minimum inhibitory concentration (MIC); for minimum inhibitory concentration (MIC): Gram negative
# Procedure: as §1, §2
# [4] = test system: Mycobacterium ranae (ATCC 110); test: Antibacterial test (MIC), comparison bacteria; conditions: for MIC: ATCC110, Gram positive, read-out: minimum inhibitory concentration (MIC); for minimum inhibitory concentration (MIC): Gram positive
# Procedure: as §1, §2
# [5] = test system: Enterococcus faecalis (VRE, ATCC 51575); test: Antibacterial test (MIC), comparison bacteria; conditions: Gram positive; for MIC: read-out: minimum inhibitory concentration (MIC)
# Procedure: as §1, §2
# [6] = test system: Klebsiella pneumonia (ATCC 10031); test: Antibacterial test (MIC), comparison bacteria; conditions: for MIC: Klebsiella pneumoniae, ATCC10031, Gram negative, read-out: minimum inhibitory concentration (MIC); for minimum inhibitory concentration (MIC): Gram negative
# Procedure: as §1, §2
# [7] = test system: Streptococcus pneumonia (ATCC 6301); test: Antibacterial test (MIC), comparison bacteria; conditions: for MIC: Streptococcus pneumoniae, ATCC6301, Gram positive, read-out: minimum inhibitory concentration (MIC); for minimum inhibitory concentration (MIC): Gram positive
# Procedure: as §1, §2
# [8] = test system: Escherichia coli (ATCC 25922); test: Antibacterial test (MIC), comparison bacteria; conditions: for MIC: ATCC25922, Gram negative, read-out: minimum inhibitory concentration (MIC); for minimum inhibitory concentration (MIC): Gram negative
# Procedure: as §1, §2
# [9] = test system: Proteus vulgaris (ATCC 13315); test: Antibacterial test (MIC), comparison bacteria; conditions: for MIC: ATCC13315, Gram negative, read-out: minimum inhibitory concentration (MIC); for minimum inhibitory concentration (MIC): Gram negative
# Procedure: as §1, §2
# [10] = test system: Staphylococcus epidermidis (ATCC 12228); test: Antibacterial test (MIC), comparison bacteria; conditions: for MIC: ATCC12228, Gram positive, read-out: minimum inhibitory concentration (MIC); for minimum inhibitory concentration (MIC): Gram positive
# Procedure: as §1, §2
# [11] = test system: Pseudomonas aeruginosa (ATCC 9027); test: Antibacterial test (MIC), comparison bacteria; conditions: for MIC: ATCC9027, Gram negative, read-out: minimum inhibitory concentration (MIC); for minimum inhibitory concentration (MIC): Gram negative
# Procedure: as §1, §2
# [12] = test system: Helicobacter pylori (ATCC 43504); test: Antibacterial test (MIC) against Helicobacter pylori; conditions: for MIC: Helicobacter pylori, ATCC43504, 72 h, pH 7, Helicobacter pylori ATCC 43504, read-out: minimum inhibitory concentration (MIC); for MIC / minimum inhibitory concentration (MIC): Columbia agar medium, 37° C., pH 7.0, cultured three days, MIC found on the fourth day; for minimum inhibitory concentration (MIC): Helicobacter pylori ATCC 43504
# Procedure: as §1, §2
# [13] = test system: Gram negative or Gram positive bacteria; test: Antibacterial test (MIC), comparison bacteria summarised in text; conditions: text summary over the comparison bacteria
# Procedure: ATCC43504 which was a standard bacterial strain was used as Helicobacter pylori (H. pylori) to perform the test in vitro in a Columbia agar medium. The bacteria were cultured at 37° C. and a pH of 7.0 for three days. The minimum inhibitory concentration (MIC, μg/ml) was found on the fourth day. Each sample was dissolved in 1% DMSO to use. As control drugs for the antibacterial agent, ampicillin (AMPC), clarithromycin (CAM), and gentamycin (GEM) were used. As bacteria for comparison, Gram negative bacteria, for example, E. coli (ATCC 10536 ATCC 25922), Klebsiella pneumonia (ATCC 10031), Proteus vulgaris (ATCC 13315), Pseudomonas aeruginosa (ATCC 9027) and Salmonella typhimurium (ATCC 13311) were used and Gram positive bacteria, for example, Staphylococcus aureus, MRSA (ATCC 33591), Staphylococcus epidermidis (ATCC 12228), Streptococcus pneumonia (ATCC 6301), Mycobacterium ranae (ATCC 110) and Enterococcus faecalis (VRE, ATCC 51575) were used.
# as §2
Compound,MIC [1],MIC [2],MIC [3],MIC [4],MIC [5],MIC [6],MIC [7],MIC [8],MIC [9],MIC [10],MIC [11],MIC [12],minimum inhibitory concentration (MIC) [1],minimum inhibitory concentration (MIC) [2],minimum inhibitory concentration (MIC) [3],minimum inhibitory concentration (MIC) [4],minimum inhibitory concentration (MIC) [5],minimum inhibitory concentration (MIC) [6],minimum inhibitory concentration (MIC) [7],minimum inhibitory concentration (MIC) [8],further results
"CCCCCOc1ccnc(SCc2nc3ccccc3[nH]2)c1C.Cl [Example 10, 2-[[(4-pentyloxy-3-methyl-2-pyridyl)thio]-methyl]-1H-benzimidazole hydrochloride]",> 100 µg/mL,> 100 µg/mL,> 100 µg/mL,> 100 µg/mL,> 100 µg/mL,> 100 µg/mL,> 100 µg/mL,> 100 µg/mL,> 100 µg/mL,> 100 µg/mL,> 100 µg/mL,0.1 µg/mL,–,–,–,–,–,–,–,–,–
Cc1c(SCCOCCOCC(F)(F)F)ccnc1SCc1nc2ccccc2[nH]1.Cl [Example 8],–,–,–,–,–,–,–,–,–,–,–,–,100< μg/ml,100< μg/ml,100< μg/ml,100< μg/ml,100< μg/ml,100< μg/ml,100< μg/ml,100< μg/ml,minimum inhibitory concentration (MIC) [9]: 100< μg/ml; minimum inhibitory concentration (MIC) [10]: 100< μg/ml; minimum inhibitory concentration (MIC) [11]: 100< μg/ml; minimum inhibitory concentration (MIC) [12]: 0.1 µg/mL
"COCCCCCCCCSc1ccnc(SCc2nc3ccccc3[nH]2)c1C.Cl [Example 3, 2-[[[4-[(8-methoxy-1-octyl]thio]-3-methyl-2-pyridyl]thio]methyl]-1H-benzimidazole hydrochloride]",> 100 µg/mL,> 100 µg/mL,> 100 µg/mL,> 100 µg/mL,> 100 µg/mL,> 100 µg/mL,> 100 µg/mL,> 100 µg/mL,> 100 µg/mL,> 100 µg/mL,> 100 µg/mL,0.1 µg/mL,–,–,–,–,–,–,–,–,–
"Gentamycin [GEM, reference compound]",–,–,–,–,–,–,–,–,–,–,–,–,1.0 µg/mL,3.0 µg/mL,0.3 µg/mL,0.3 µg/mL,100 µg/mL,1.0 µg/mL,100 µg/mL,1.0 µg/mL,MIC against Gram negative or Gram positive bacteria [13]: 0.1 to 1.0 µg/mL; minimum inhibitory concentration (MIC) [9]: 0.3 µg/mL; minimum inhibitory concentration (MIC) [10]: 0.1 µg/mL; minimum inhibitory concentration (MIC) [11]: 1.0 µg/mL; minimum inhibitory concentration (MIC) [12]: 0.3 µg/mL; MIC against Helicobacter pylori ([12]; control drug): 0.3 µg/mL

# Reference: US20120041030A1, “PYRIDINE THIO DERIVATIVE, AND PHARMACEUTICAL COMPOSITION WHICH CONTAINS SAME AND HAS ANTI-HELICOBACTER PYLORI ACTION” (priority 2009, published 2012)
